From US8148531B2 (Chroma Therapeutics Ltd., priority 2005, dated 2012)

Legend:
HUT cell line = assay: Cell inhibition assay (SRB cell viability), HUT; assay type: cell-based; conditions: IC50 range class, 72 h, read-out: Inhibitor Activity vs HUT cell line
Procedure, shortened: (§1)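 Log-phase cells seeded at 1000 cells/well, grown 24 h, then exposed to compounds (20 uM final) for 72 h. Viability read by sulphorhodamine B staining as % inhibition versus DMSO; IC50 from eight-point sigmoidal variable-slope fit.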

Aurora-A = target: T1, Aurora-A (Homo sapiens, UniProt O14965); assay: Aurora-A enzyme assay (MBP-coated Flashplate, γ-33P-ATP); assay type: biochemical; conditions: IC50 range class; read-out: Inhibitor Activity vs Aurora-A
T1 sequence (O14965 1-403): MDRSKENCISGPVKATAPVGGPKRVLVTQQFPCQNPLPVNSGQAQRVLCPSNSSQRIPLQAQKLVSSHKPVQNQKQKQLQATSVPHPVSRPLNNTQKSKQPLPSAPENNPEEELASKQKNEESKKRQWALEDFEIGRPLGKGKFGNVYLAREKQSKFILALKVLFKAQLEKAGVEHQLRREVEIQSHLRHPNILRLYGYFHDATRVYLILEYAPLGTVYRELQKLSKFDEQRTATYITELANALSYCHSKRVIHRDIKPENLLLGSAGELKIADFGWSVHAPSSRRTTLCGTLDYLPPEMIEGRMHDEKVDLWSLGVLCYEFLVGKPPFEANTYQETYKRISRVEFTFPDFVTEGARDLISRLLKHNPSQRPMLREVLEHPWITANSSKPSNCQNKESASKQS
Experimental: (§2) The ability of compounds to inhibit Aurora-A activity was measured using a simple microplate assay for Aurora-A activity, also suitable for high-throughput screening. In brief, γ-^33P-ATP and Aurora-A were incubated in a myelin basic protein (MBP)-coated Flashplate® to generate a scintillation signal. The plates were formatted to contain the inhibitor, controls, positive control (staurosporin) and blanks. After incubation at 37° C. for 1 hour and a subsequent wash procedure, the plates were read on a TopCount-NXT™.
The 384-well basic Flashplate® and the γ-^33P-ATP were obtained from PerkinElmer Life Sciences, Boston, Mass.
(§3) IC50 values were determined by non-linear regression analysis, after fitting the data point results to the equation for sigmoidal dose response with variable slope (% activity against log concentration of compound), using Graphpad Prism software.
Full experimental procedure for this assay can be found within the following reference: Sun, C Journal of Biomolecular Screening 9(5), 2004, 391.

HCT 116 cell line = assay: Cell inhibition assay (SRB cell viability), HCT 116; assay type: cell-based; conditions: Homo sapiens, IC50 range class, 72 h, read-out: Inhibitor Activity vs HCT 116 cell line
Procedure, shortened: as §1

Aurora-B = Aurora-B (Homo sapiens, UniProt Q96GD4); assay: Aurora-B enzyme assay (identical protocol as Aurora-A); assay type: biochemical; conditions: IC50 range class; read-out: Inhibitor Activity vs Aurora-B
Aurora-B, sequence (Q96GD4 whole entry): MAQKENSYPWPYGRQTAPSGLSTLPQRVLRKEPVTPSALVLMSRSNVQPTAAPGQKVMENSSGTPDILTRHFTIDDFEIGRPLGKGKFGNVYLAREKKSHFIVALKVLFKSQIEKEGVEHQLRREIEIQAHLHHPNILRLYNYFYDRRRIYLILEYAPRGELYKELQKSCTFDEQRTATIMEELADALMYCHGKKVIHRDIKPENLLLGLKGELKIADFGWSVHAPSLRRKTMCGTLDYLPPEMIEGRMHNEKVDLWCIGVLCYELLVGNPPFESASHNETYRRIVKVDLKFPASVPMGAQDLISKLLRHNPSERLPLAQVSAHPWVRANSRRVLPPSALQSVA
Experimental: as §2, §3
The Aurora-B enzyme assay follows the identical protocol as Aurora-A.

U937 cell line = assay: Cell inhibition assay (SRB cell viability), U937; assay type: cell-based; conditions: Homo sapiens, U-937, IC50 range class, 72 h, read-out: Inhibitor Activity vs U937 cell line
Procedure, shortened: as §1

Structure (SMILES) | IC50 (HUT cell line) | IC50 (Aurora-A) | IC50 (HCT 116 cell line) | IC50 (Aurora-B) | IC50 (U937 cell line)
COc1cc2c(Oc3ccc(NC(=O)c4ccccc4)cc3)ccnc2cc1OCC[C@H](NC(=O)OC(C)(C)C)C(=O)OC1CCCC1 [Example 1, (S)-4-[4-(4-Benzoylamino-phenoxy)-6-methoxy-quinolin-7-yloxy]-2-tert-butoxycarbonylamino-butyric acid cyclopentyl ester] | 1 to 5 µM | 2 to 5 µM | < 1 µM | > 5 µM | < 1 µM
COc1cc2c(Oc3ccc(NC(=O)c4ccccc4)cc3)ccnc2cc1OCC[C@H](N)C(=O)OC1CCCC1 [Example 2, (S)-2-Amino-4-[4-(4-benzoylamino-phenoxy)-6-methoxy-quinolin-7-yloxy]-butyric acid cyclopentyl ester] | < 1 µM | 2 to 5 µM | < 1 µM | 2 to 5 µM | < 1 µM
COc1cc2c(Nc3ccc(NC(=O)c4ccccc4)cc3)ccnc2cc1OCC[C@H](N)C(=O)OC1CCCC1 [Example 15, (S)-2-Amino-4-[4-(4-benzoylamino-phenylamino)-6-methoxy-quinolin-7-yloxy]-butyric acid cyclopentyl ester] | 1 to 5 µM | 2 to 5 µM | 1 to 5 µM | > 5 µM | 1 to 5 µM
COc1cc2c(Sc3ccc(NC(=O)c4ccccc4)cc3)ccnc2cc1OCC[C@H](N)C(=O)OC1CCCC1 [Example 18, (S)-2-Amino-4-[4-(4-benzoylamino-phenylsulfanyl)-6-methoxy-quinolin-7-yloxy]-butyric acid cyclopentyl ester] | < 1 µM | < 2 µM | < 1 µM | > 5 µM | < 1 µM
COc1cc2c(Sc3ccc(NC(=O)C4CC4)cc3)ccnc2cc1OCC[C@H](N)C(=O)OC1CCCC1 [Example 20, (S)-2-Amino-4-{4-[4-(cyclopropanecarbonyl-amino)-phenylsulfanyl]-6-methoxy-quinolin-7-yloxy}-butyric acid cyclopentyl ester] | < 1 µM | > 5 µM | < 1 µM | > 5 µM | < 1 µM
COc1cc2c(Oc3ccc(NC(=O)c4ccccc4)cc3)c(Br)cnc2cc1OCC[C@H](N)C(=O)OC1CCCC1 [Example 32] | 1 to 5 µM | > 5 µM | > 5 µM | > 5 µM | 1 to 5 µM
COc1cc2c(Oc3ccc(NC(=O)Nc4ccccc4)cc3)ccnc2cc1OCC[C@H](N)C(=O)O [Example 96, (S)-2-Amino-4-{6-methoxy-4-[4-(3-phenyl-ureido)-phenoxy]-quinolin-7-yloxy}-butyric acid] | – | < 2 µM | – | < 2 µM | –
COc1cc2c(Oc3ccc(NC(=O)c4ccccc4)cc3)ccnc2cc1OCC[C@@H](N)C(=O)O [Example 100, (R)-2-Amino-4-[4-(4-benzoylamino-phenoxy)-6-methoxy-quinolin-7-yloxy]-butyric acid] | – | 2 to 5 µM | – | < 2 µM | –
COc1cc2c(Oc3ccc(NC(=O)Nc4ccccc4)cc3)ccnc2cc1OCC[C@@H](N)C(=O)O [Example 102, (R)-2-Amino-4-{6-methoxy-4-[4-(3-phenyl-ureido)-phenoxy]-quinolin-7-yloxy}-butyric acid] | – | < 2 µM | – | < 2 µM | –
COc1cc2c(Oc3ccc(NC(=O)Nc4ccc(C(F)(F)F)cc4)cc3)ccnc2cc1OCC[C@@H](N)C(=O)O [Example 105, (R)-2-Amino-4-(6-methoxy-4-{4-[3-(4-trifluoromethyl-phenyl)-ureido]-phenoxy}-quinolin-7-yloxy)-butyric acid] | – | < 2 µM | – | < 2 µM | –
COc1cc2c(Oc3ccc(NC(=O)c4ccccc4)cc3)ccnc2cc1OCCC[C@H](N)C(=O)O [Example 110, (S)-2-Amino-5-[4-(4-benzoylamino-phenoxy)-6-methoxy-quinolin-7-yloxy]-pentanoic acid] | – | < 2 µM | – | < 2 µM | –
COc1cc2c(Oc3ccc(NC(=O)Nc4ccccc4)cc3)ccnc2cc1OCCC[C@H](N)C(=O)O [Example 112, (S)-2-Amino-5-{6-methoxy-4-[4-(3-phenyl-ureido)-phenoxy]-quinolin-7-yloxy}-pentanoic acid] | – | < 2 µM | – | < 2 µM | –
COc1cc2c(Oc3ccc(NC(=O)Nc4ccc(C(F)(F)F)cc4)cc3)ccnc2cc1OCCC[C@H](N)C(=O)O [Example 114, (S)-2-Amino-5-(6-methoxy-4-{4-[3-(4-trifluoromethyl-phenyl)-ureido]-phenoxy}-quinolin-7-yloxy)-pentanoic acid] | – | < 2 µM | – | < 2 µM | –
COc1cc2c(Oc3ccc(NC(=O)c4ccccc4)cc3)ccnc2cc1OCCC[C@@H](N)C(=O)O [Example 116, (R)-2-Amino-5-[4-(4-benzoylamino-phenoxy)-6-methoxy-quinolin-7-yloxy]-pentanoic acid] | – | < 2 µM | – | < 2 µM | –
COc1cc2c(Oc3ccc(NC(=O)Nc4ccccc4)cc3)ccnc2cc1OCCC[C@@H](N)C(=O)O [Example 118, (R)-2-Amino-5-{6-methoxy-4-[4-(3-phenyl-ureido)-phenoxy]-quinolin-7-yloxy}-pentanoic acid] | – | < 2 µM | – | < 2 µM | –
COc1cc2c(Oc3ccc(NC(=O)Nc4ccc(C(F)(F)F)cc4)cc3)ccnc2cc1OCCC[C@@H](N)C(=O)O [Example 120, (R)-2-Amino-5-(6-methoxy-4-{4-[3-(4-trifluoromethyl-phenyl)-ureido]-phenoxy}-quinolin-7-yloxy)-pentanoic acid] | – | < 2 µM | – | < 2 µM | –
COc1cc2c(Sc3ccc(NC(=O)Nc4ccc(C(F)(F)F)cc4)cc3)ccnc2cc1OCCC[C@@H](N)C(=O)O [Example 122, (R)-2-Amino-5-(6-methoxy-4-{4-[3-(4-trifluoromethyl-phenyl)-ureido]-phenylsulfanyl}-quinolin-7-yloxy)-pentanoic acid] | – | < 2 µM | – | < 2 µM | –
COc1cc2c(Oc3ccc(NC(=O)Nc4ccc(C(F)(F)F)cc4)cc3F)ccnc2cc1OCCC[C@@H](N)C(=O)O [Example 124, (R)-2-Amino-5-(4-{2-fluoro-4-[3-(4-trifluoromethyl-phenyl)-ureido]-phenoxy}-6-methoxy-quinolin-7-yloxy)-pentanoic acid] | – | < 2 µM | – | < 2 µM | –
COc1cc2c(Oc3ccc(NC(=O)Nc4ccc(C(F)(F)F)cc4)cc3F)ccnc2cc1OCC[C@H](N)C(=O)O [Example 126, (S)-2-Amino-4-(4-{2-fluoro-4-[3-(4-trifluoromethyl-phenyl)-ureido]-phenoxy}-6-methoxy-quinolin-7-yloxy)-butyric acid] | – | < 2 µM | – | < 2 µM | –
COc1cc2c(Oc3ccc(NC(=O)c4ccccc4)cc3F)ccnc2cc1OCC[C@H](N)C(=O)O [Example 129, (S)-2-Amino-4-[4-(4-benzoylamino-2-fluoro-phenoxy)-6-methoxy-quinolin-7-yloxy]-butyric acid] | – | < 2 µM | – | < 2 µM | –
COc1cc2c(Oc3ccc(NC(=O)c4ccccc4)c(F)c3)ccnc2cc1OCC[C@H](N)C(=O)O [Example 131, (S)-2-Amino-4-[4-(4-benzoylamino-3-fluoro-phenoxy)-6-methoxy-quinolin-7-yloxy]-butyric acid] | – | > 5 µM | – | 2 to 5 µM | –
COc1cc2c(Oc3ccc(NC(=O)c4ccccc4)cc3OC)ccnc2cc1OCC[C@H](N)C(=O)O [Example 133, (S)-2-Amino-4-[4-(4-benzoylamino-2-methoxy-phenoxy)-6-methoxy-quinolin-7-yloxy]-butyric acid] | – | 2 to 5 µM | – | 2 to 5 µM | –
COc1cc2c(Oc3ccc(NCc4ccccc4)cc3)ccnc2cc1OCC[C@H](N)C(=O)O [Example 139, (S)-2-Amino-4-[4-(4-benzylamino-phenoxy)-6-methoxy-quinolin-7-yloxy]-butyric acid] | – | 2 to 5 µM | – | 2 to 5 µM | –
COc1cc2c(Oc3ccc(CNC(=O)c4ccccc4)cc3)ccnc2cc1OCC[C@H](N)C(=O)O [Example 142, (S)-2-Amino-4-{4-[4-(benzoylamino-methyl)-phenoxy]-6-methoxy-quinolin-7-yloxy}-butyric acid] | – | 2 to 5 µM | – | < 2 µM | –
